# Measured values reported in patent publication US20170349546A1, “Light-Activated Two-Component Protein Binding Matrix” (National University of Singapore, priority 2014, published 2017).
# Where no end group is shown, it is not given here. The star is where a group is joined. Biotin = O=C1N[C@H]2[C@H](CS[C@H]2CCCCC(=O)*)N1
# Assay: Spiropyran modified beads pull-down of biotinylated peptide, residual HRP-streptavidin measured in solution
# Type: binding
# Settings: beads incubated with 10 μM peptide, washed twice with PBS, 1 μM HRP-conjugated streptavidin; exposed to light at time=60 minutes
# Description: FIG. 3 is a line graph representing binding of peptides to beads selectively modified with a spiropyran molecule. The selectively modified beads were incubated with 10 μM of peptide B7, LAGPQMHGK (SEQ ID NO: 62), for the indicate length of time, and then washed twice with phosphate buffered saline (PBS). The beads were when incubated with 1 μM horseradish (HRP)-conjugated streptavidin, and the residual HRP-streptavidin was measured in solution. FIG. 3 illustrates the % absorbance of the beads after the indicated period of time. The higher the absorbance, the higher the concentration of streptavidin in the bulk solution. […]
# Wash 1 mL agarose beads with 2 column volumes DMSO (take from bottle in anhydrous fashion). In different container, mix 2.5 mg spiropyran and 80 mg EDC and 100 mg of NHS. Dissolve these compounds in DMSO; wait for 10 minutes at room temp. Add beads (which are now in DMSO) to this mixture. Make sure good mixing/suspension, i.e. enough DMSO to fully suspend the entire matrix. Agitate for 12 hours. Wash modified matrix with DMSO×20 c.v. to wash out free compounds. Remove DMSO with water was ×20 column volumes. Then store in water or 20% ethanol. See FIG. 7 for examples of bead conjugation techniques.
sequence,measurement,value
"LAGPQMHGK (LAGPQMHGK(Biotin)) [peptide B7, biotinylated peptide aptamer, biotin covalently linked via the amine on the C-terminal lysine residue]",residual HRP-streptavidin in bulk solution (% absorbance) after exposure to light,released back into the bulk solution
